# Data from publication PMC9103184, “Kunitz-Type Peptides from Sea Anemones Protect Neuronal Cells against Parkinson’s Disease Inductors via Inhibition of ROS Production and ATP-Induced P2X7 Receptor Activation” (International Journal of Molecular Sciences, 2022).
# Experiments:
# [1] = tested on: Neuro-2a cells; test: Paraquat-induced toxicity, cell viability (MTT); assay type: cell-based, murine; conditions: peptide up to 10 μM, 600 μM paraquat, 24 h
# Method: The murine neuroblastoma cell line Neuro-2a was purchased from ATCC (CCL-131, American Type Culture Collection, Manassas, VA, USA). Cells were cultured in Dulbecco’s modified Eagle’s medium (DMEM) (Biolot, St. Petersburg, Russia) containing 10% fetal bovine serum (Biolot, St. Petersburg, Russia) and 1% penicillin/streptomycin (Biolot, St. Petersburg, Russia) according to ATCC’s instruction. Cells were incubated at 37 °C in a humidified atmosphere containing 5% CO2 (v/v). Before the experiments, Neuro-2a cells at a concentration of 1 × 10^4 cells/well were dispensed into 96-well plates and incubated for 24 h in a humidified atmosphere containing 5% CO2 to allow cell attachment.
# Then, 20 μL of substance solution was loaded into the cells and incubated for 24 h followed by replacement of the medium with tested substances and 100 μL of fresh medium. Then, 10 μL of MTT (3-(4,5-dimethylthiazol-2-yl)-2,5- diphenyltetrazolium bromide) (Sigma-Aldrich, St. Louis, MO, USA) stock solution (5 mg/mL) was added to each well and the microplate was incubated for 4 h. […] The absorbance of the converted dye formazan was measured using a Multiskan FC microplate photometer (Thermo Scientific, Waltham, MA, USA) at a wavelength of 570 nm. […] Cytotoxic activity was expressed as the percentage of cell viability. […]
# [2] = tested on: Neuro-2a cells; test: Paraquat-induced ROS formation (H2DCF-DA); assay type: cell-based, murine; conditions: peptide 0.01 μM, 600 μM paraquat 3 h, means ± SE
# Method: (§1) Figure 8 Effects of the peptides on intracellular ROS and NO formation. The effects of the peptides on ROS formation into Neuro-2a cells treated by 600 μM paraquat (a) and 10 μM rotenone (b). The effects of peptides on NO formation into the cells treated by 600 μM paraquat (c) and 10 μM rotenone (d). Cells were incubated with peptides for 1 h at 37 °C, then 3 or 1 h with paraquat or rotenone, respectively. The data are shown as the means ± SE; *—p < 0.05, **—p < 0.01, #—p < 0.05 when comparing concentrations of the same peptide.
# (§2) Neuro-2a cells were incubated with peptides at concentrations of 0.01, 0.1, and 1 µM for 1 h. Then, paraquat (600 μM) or rotenone (10 µM) was added to each well and cells were incubated for 3 or 1 h, respectively. To study the ROS formation, the 2,7-dichlorodihydrofluorescein diacetate (H2DCF-DA) assay was performed according to the manufacturer’s instructions (Molecular Probes, Eugene, OR, USA). […]
# (§3) To determine the NO production, a 4-amino-5-methylamino-2′,7′-difluorofluorescein diacetate (DAF-FM) assay was performed according to the manufacturer’s instructions (Invitrogen, Carlsbad, CA, USA). […] In both cases, the fluorescence intensity was measured using a PHERAstar FS high-speed plate reader (BMG Labtech, Ortenberg, Germany) at λex = 485 nm and λem = 518 nm. […]
# [3] = tested on: Neuro-2a cells; test: Rotenone-induced ROS formation (H2DCF-DA); assay type: cell-based, murine; conditions: peptide 0.01 μM, 10 μM rotenone 1 h, means ± SE
# Method: as §1, §2, §3
# [4] = tested on: Neuro-2a cells; conditions: cited from earlier work
# Method: The peptides were tested for cell viability in in vitro 6-OHDA-, rotenone-, paraquat-, and MPP^+-induced Parkinson’s disease models. All peptides were non-toxic on Neuro-2a cells at a concentrations up to 10 µM (Figure S2). The viability of neurotoxin-treated cells was about 65% versus control (Figure 7).
substance,measurement,setting,value
"HCIQ2c1: recombinant Kunitz-type peptide from Heteractis crispa, UniProtKB ID A0A6B7FBD3 (IQGNICSEPKKVGRCRGSFPRFYFDSETGKCTPFIYGGCGGNGNNFETLHACRAICRA; UniProt A0A6B7FBD3 28-85, looked up)",influence on viability of paraquat-treated cells,[1],did not influence the viability
same,decrease in paraquat-induced ROS level,[2],30.7 ± 1.8%
same,decrease in rotenone-induced ROS level,[3],22.0 ± 7.3%
same,increase in viability of 6-OHDA-treated cells,[4],47%
same,protection against 6-OHDA compared with HCIQ4c7,[4],stronger neuroblastoma cell viability against 6-OHDA than HCIQ4c7
